EC50 data for 35 molecules are collected here from patent US9120779B2, “Inhibitors of HCV NS5A” (PRESIDIO PHARMACEUTICALS, INC., priority 2008, dated 2015).

Each structure is given as a SMILES string. pEC50: −log10 of the molar value.

For one assay, the system named is HCV genotype 1b replicon in Huh 7 cells. Briefly: HCV replicon assay (luciferase readout, 1b_Huh-Luc/Neo-ET cell line). The settings on record: Hepatitis C virus, Huh-7, 72 h, read-out: Inhibition of HCV genotype 1b, Table 1, 72 h incubation. The class given is cell-based. The method, then: Biological activity of the compounds of the invention was determined using an HCV replicon assay. The 1b_Huh-Luc/Neo-ET cell line persistently expressing a bicistronic genotype 1b replicon in Huh 7 cells was obtained from R^eBLikon GMBH. This cell line was used to test compound inhibition using luciferase enzyme activity readout as a measurement of compound inhibition of replicon levels.
On Day 1 (the day after plating), each compound is added in triplicate to the cells. Plates incubated for 72 h prior to running the luciferase assay. Enzyme activity was measured using a Bright-Glo Kit (cat. number E2620) manufactured by Promega Corporation. The following equation was used to generate a percent control value for each compound. % Control=(Average Compound Value/Average Control)*100
The EC50 value was determined using GraphPad Prism and the following equation: Y=Bottom+(Top−Bottom)/(1+10^((Log IC50−X)*HillSlope))
EC50 values of compounds are repeated several times in the replicon assay.
Example compounds of the disclosed invention are illustrated in Tables 1-9 attached as appendices. The tables show inhibitory activity of many of the example compounds with respect to HCV 1b. […] The tables further provide mass spectrometry results for the synthesized example compounds.
On the technique in general: Replicon systems follow genome replication, usually without infectious particles.
In the case of `COC(=O)N[C@@H](C(=O)N1CCC[C@H]1c1ncc(-c2ccc([C@H]3CC[C@](C)(c4cnc([C@@H]5CCCN5C(=O)[C@H](NC(=O)OC)c5ccccc5)[nH]4)CC3)cc2)[nH]1)c1ccccc1` [compound 2006], the pEC50 was more than 9.00. Same read-out and setting: for `O=C(N[C@H]1CC[C@H](c2ccc(-c3cnc([C@@H]4CCCN4C(=O)[C@H](NC(=O)N4CCOCC4)c4ccccc4)[nH]3)cc2)CC1)[C@@H]1CCCN1C(=O)[C@H](NC(=O)N1CCOCC1)c1ccccc1` [compound 354] the value was 8.00 to 9.00; for `O=C(N[C@@H](C(=O)N1CCC[C@H]1c1ncc(-c2ccc(C3CCC(c4cnc([C@@H]5CCCN5C(=O)[C@H](NC(=O)C5CC5)c5ccccc5)[nH]4)CC3)cc2)[nH]1)c1ccccc1)C1CC1` (some centres unmarked) [compound 371], more than 9.00. For the molecule `O=C(N[C@@H](C(=O)N1CCC[C@H]1c1ncc(-c2ccc(C3CCC(c4cnc([C@@H]5CCCN5C(=O)[C@H](NC(=O)C5CC5)c5ccccc5)o4)CC3)cc2)[nH]1)c1ccccc1)C1CC1` (some centres unmarked) [compound 353], the pEC50 is more than 9.00. On the same count and under the same terms, with `CC(C)(C)OC(=O)N[C@@H](C(=O)N1CCC[C@H]1c1ncc(-c2ccc(C3CCC(c4cnc([C@@H]5CCCN5C(=O)[C@H](NC(=O)OC(C)(C)C)c5ccccc5)o4)CC3)cc2)[nH]1)c1ccccc1` (some centres unmarked) [compound 352] the figure was 8.00 to 9.00.

For the molecule `COC(=O)N[C@H](C(=O)N1CCC[C@H]1c1ncc(-c2ccc([C@H]3CC[C@H](c4cnc([C@@H]5CCCN5C(=O)[C@H](NC(=O)OC)c5ccccc5)[nH]4)CC3)cc2)[nH]1)C(C)C` [compound 2001], the pEC50 is more than 9.00. Still for that read-out and setting: with `COC(=O)N[C@@H](C(=O)N1CCC[C@H]1c1ncc(C2CCC(c3ccc(-c4cnc([C@@H]5CCCN5C(=O)[C@@H](c5ccccc5)N5CCCC5)[nH]4)cc3)CC2)[nH]1)c1ccccc1` (some centres unmarked) [compound 379] the figure was more than 9.00.

The same assay, now with this note: Hepatitis C virus, Huh-7, 72 h, read-out: Inhibition of HCV genotype 1b, Table 3, 72 h incubation.
For `COC(=O)N[C@@H](C(=O)N1CCC[C@H]1c1ncc(-c2cc(F)c(N3CCC(c4cnc([C@@H]5CCCN5C(=O)[C@H](NC(=O)[C@@H]5CCCN5C)c5ccccc5)[nH]4)CC3)c(F)c2)[nH]1)c1ccccc1` [compound 472], the pEC50 is more than 9.00.

With `COC(=O)N[C@@H](C(=O)N1CCC[C@H]1c1ncc(-c2cc(F)c(N3CCC(c4cnc([C@@H]5CCCN5C(=O)[C@@H](c5ccccc5)N5CCOCC5)[nH]4)CC3)c(F)c2)[nH]1)c1ccccc1` [compound 468], the pEC50 is more than 9.00. On the same count and under the same terms, with `COC(=O)N[C@H](C(=O)N1CCOC[C@H]1c1ncc(-c2cc(F)c(N3CCC(c4cnc([C@@H]5CCCN5C(=O)[C@@H](NC(=O)OC)C(C)C)[nH]4)CC3)c(F)c2)[nH]1)C(C)C` [compound 509] the figure was more than 9.00.

In the case of `COC(=O)N[C@@H](C(=O)N(C)[C@@H](C)c1ncc(C2CCN(c3c(F)cc(-c4cnc([C@@H]5CCCN5C(=O)[C@H](NC(=O)OC)c5ccccc5)[nH]4)cc3F)CC2)[nH]1)c1ccccc1` [compound 506], the pEC50 is more than 9.00. The same measure, in the same setting: for `C[C@H](NC(=O)[C@H](NC(=O)OC(C)(C)C)c1ccccc1)c1ncc(-c2cc(F)c(N3CCC(c4cnc([C@@H]5CCCN5C(=O)[C@H](NC(=O)OC(C)(C)C)c5ccccc5)[nH]4)CC3)c(F)c2)[nH]1` [compound 520] the value was more than 9.00; for `COC(=O)N[C@@H](C(=O)N1CCC[C@H]1c1ncc(-c2cc(F)c(N3CCC(c4cnc([C@@H]5CCCN5C(=O)[C@H](NC(=O)OC(C)(C)C)c5ccccc5)[nH]4)CC3)c(F)c2)[nH]1)c1ccccc1` [compound 460], more than 9.00. The same measure, in the same setting: for `O=C(N[C@@H](C(=O)N1CCC[C@H]1c1ncc(-c2ccc(N3CCC(c4cnc([C@@H]5CCCN5C(=O)[C@H](NC(=O)C5CC5)c5ccccc5)[nH]4)CC3)c(F)c2)[nH]1)c1ccccc1)C1CC1` [compound 451] the value was more than 9.00; for `COC(=O)N[C@@H](C(=O)N1CCCC[C@H]1c1ncc(C2CCN(c3c(F)cc(-c4cnc([C@@H]5CCCN5C(=O)[C@H](NC(=O)C5CC5)c5ccccc5)[nH]4)cc3F)CC2)[nH]1)c1ccccc1` [compound 493], more than 9.00. Still for that read-out and setting: for `COC(=O)N[C@@H](C(=O)N1CCC[C@H]1c1ncc(-c2cc(F)c(N3CCC(c4cnc([C@@H]5CCCN5C(=O)[C@H](NC(=O)N5CCOCC5)c5ccccc5)[nH]4)CC3)c(F)c2)[nH]1)c1ccccc1` [compound 471] the value was 8.00 to 9.00.

The same assay, now with this note: Hepatitis C virus, Huh-7, 72 h, read-out: Inhibition of HCV genotype 1b, Table 4, 72 h incubation.
With `COC(=O)N[C@H](C(=O)N1CCC[C@H]1c1nc2ccc(-c3ccc(-c4ccc5nc([C@@H]6CCCN6C(=O)[C@@H](c6ccccc6)N(C)C)[nH]c5c4)cc3)cc2[nH]1)C(C)C` [compound 2038], the pEC50 was more than 9.00. On the same count and under the same terms, for `CC(C)[C@H](NC(=O)N1CC[C@H](O)C1)C(=O)N1CCC[C@H]1c1nc2ccc(-c3ccc(-c4ccc5nc([C@@H]6CCCN6C(=O)[C@@H](NC(=O)N6CC[C@H](O)C6)C(C)C)[nH]c5c4)cc3)cc2[nH]1` [compound 553] the value was less than 6.00.

Staying with this assay, now noted: Hepatitis C virus, Huh-7, 72 h, read-out: Inhibition of HCV genotype 1b, Table 5, 72 h incubation.
With `COC(=O)N[C@H](C(=O)N1CCC[C@H]1c1ncc(C23CCC(c4ccc(-c5cnc([C@@H]6CCCN6C(=O)[C@@H](C(C)C)N(C)C)[nH]5)cc4)(CC2)CC3)[nH]1)C(C)C` [compound 2070], the pEC50 was more than 9.00. With `COC(=O)N[C@H](C(=O)N1CCC[C@H]1c1ncc(-c2ccc(C34CCC(c5cnc([C@@H]6CCCN6C(=O)[C@@H](NC(=O)OC)C6CCCC6)[nH]5)(CC3)CC4)cc2)[nH]1)C1CCCC1` [compound 2094], the pEC50 is more than 9.00. Turning to `COC(=O)N[C@@H](C(=O)N1CCC[C@H]1c1ncc(-c2ccc(C34CCC(c5cnc([C@@H]6CCCN6C(=O)[C@H](NC(=O)OC)c6ccccc6)[nH]5)(CC3)CC4)cc2)[nH]1)c1ccccc1` [compound 606], the pEC50 is more than 9.00. Still for that read-out and setting: with `COC(=O)N[C@H](C(=O)N[C@@H](C)c1ncc(-c2ccc(C34CCC(c5cnc([C@@H]6CCCN6C(=O)[C@H](C(C)C)N(C)C)[nH]5)(CC3)CC4)cc2)[nH]1)C(C)C` [compound 2078] the figure was more than 9.00; with `CNC(=O)N[C@@H](C(=O)N1CCC[C@H]1c1ncc(-c2ccc(C34CCC(c5cnc([C@@H]6CCCN6C(=O)[C@@H](NC(=O)OC)C(C)C)[nH]5)(CC3)CC4)cc2)[nH]1)c1ccccc1` [compound 2102], more than 9.00. Same read-out and setting: for `COC(=O)N[C@H](C(=O)N1CCC[C@H]1c1ncc(-c2ccc(C34CCC(c5cnc([C@@H]6CCCN6C(=O)[C@@H](C(C)C)N(C)C)[nH]5)(CC3)CC4)cc2)[nH]1)C(C)C` [compound 2057] the value was more than 9.00. Same read-out and setting: with `CCC(C)[C@H](NC(=O)OC)C(=O)N1CCC[C@H]1c1ncc(-c2ccc(C34CCC(c5cnc([C@@H]6CCCN6C(=O)[C@@H](NC(=O)OC)C(C)CC)[nH]5)(CC3)CC4)cc2)[nH]1` (some centres unmarked) [compound 2092] the figure was more than 9.00. With `COC(=O)N[C@H](Cc1ccccc1)C(=O)N1CCC[C@H]1c1ncc(C23CCC(c4ccc(-c5cnc([C@@H]6CCCN6C(=O)[C@H](NC(=O)OC)c6ccccc6)[nH]5)cc4)(CC2)CC3)[nH]1` [compound 610], the pEC50 was more than 9.00. `COC(=O)N[C@H](C(=O)N1CCC[C@H]1c1ncc(C23CCC(c4ccc(-c5cnc([C@@H]6CCCN6C(=O)[C@H](C(C)C)N6CCC(O)CC6)[nH]5)cc4)(CC2)CC3)[nH]1)C(C)C` [compound 2071]: the pEC50 was more than 9.00. In the case of `COC(=O)N[C@@H](C(=O)N1CCC[C@H]1c1ncc(-c2ccc(C34CCC(c5cnc([C@@H]6CCCN6C(=O)[C@@H](c6ccccc6)N6CCOCC6)[nH]5)(CC3)CC4)cc2)[nH]1)c1ccccc1` [compound 611], the pEC50 is more than 9.00. The same measure, in the same setting: for `COC(=O)N[C@H](C(=O)N1CCC[C@H]1c1ncc(C23CCC(c4ccc(-c5cnc([C@@H]6CCCN6C(=O)[C@H](NC(=O)N6CCC(O)CC6)c6ccccc6)[nH]5)cc4)(CC2)CC3)[nH]1)C(C)C` [compound 2101] the value was more than 9.00. As for `COC(=O)N[C@H](C(=O)N1CCC[C@H]1c1ncc(C23CCC(c4ccc(-c5cnc([C@@H]6CCCN6C(=O)[C@@H](NC(=O)C6CCN(C)CC6)C(C)C)[nH]5)cc4)(CC2)CC3)[nH]1)C(C)C` [compound 647], the pEC50 is 6.00 to 8.00.

As to `CC(C)[C@H](NC(=O)N1CCOCC1)C(=O)N1CCC[C@H]1c1ncc(-c2ccc(C34CCC(c5cnc([C@@H]6CCCN6C(=O)[C@@H](NC(=O)N6CCOCC6)C(C)C)[nH]5)(CC3)CC4)cc2)[nH]1` [compound 628], the pEC50 was less than 6.00. Same read-out and setting: with `COC(=O)NC(C(=O)N1CCC[C@H]1c1ncc(-c2ccc(C34CCC(c5cnc([C@H](C)NC(=O)[C@@H](NC(=O)OC)C(C)C)[nH]5)(CC3)CC4)cc2)[nH]1)c1ccccc1` (some centres unmarked) [compound 2105] the figure was more than 9.00.

On to `COC(=O)N[C@@H](C(=O)N1CCC[C@H]1c1ncc(-c2ccc(C34CCC(c5cnc([C@@H]6CCCN6C(=O)[C@H](OC)c6ccccc6)[nH]5)(CC3)CC4)cc2)[nH]1)c1ccccc1` [compound 615], for which the pEC50 is more than 9.00.

On to `COC(=O)N[C@@H](C(=O)N1CCC[C@H]1c1ncc(-c2ccc(C34CCC(c5cnc([C@@H]6CCCN6C(=O)[C@@H](NC(=O)N6CCC(=O)CC6)C(C)C)[nH]5)(CC3)CC4)cc2)[nH]1)c1ccccc1` [compound 644], for which the pEC50 was 8.00 to 9.00.

The assay is the same for the next values; noted with them: read-out: Inhibition of HCV genotype 1b, Table 5, 72 h incubation.
In the case of `COC(=O)N[C@@H](C(=O)N1CCC[C@H]1c1ncc(-c2ccc(C34CCC(c5cnc([C@@H]6CCCN6C(=O)[C@@H](NC(=O)N6CCN(C)CC6)C(C)C)[nH]5)(CC3)CC4)cc2)[nH]1)c1ccccc1` [compound 642], the pEC50 was 8.00 to 9.00.
